Legend:
CD-1 mice (male) [1] = details: oral administration; cited from earlier work
CD-1 mice (male) [2] = experiment: Acute toxicity by oral administration to mice; format: in vivo
Method: The acute toxicity, as tested by oral administration to CD-1 mice (male), of mono-L-aspartyl chlorin e6 tetra-sodium salt is already known to be such that its 50% lethal dose is 164 mg/kg, and thus the compound is of a low toxicity (refer to Japanese Patent Application Publication Kokai Hei 9-71531).

[3] = system: lesions of arteriosclerosis of artery; experiment: Test Example 2: detection and therapy of lesions of arteriosclerosis by X-ray radiography; format: in vivo, rabbit; details: 8 mg via ear vein
Method: To a rabbit having a high cholesteremia and a body weight of about 4 kg was administered 8 mg of the mono-L-aspartyl chlorin e6-gold complex sodium salt (the product of Example 2) through the ear vein. One hour after the administration, anesthesia with nembutal was done to the rabbit. Then, the whole body of the rabbit was irradiated for an appropriate time with an X-ray beam containing the X-ray of the wavelength of 0.153 Å which suited to the electron absorption of the K-shell of gold atom. The X-ray which had passed through the rabbit was allowed to sensitize an X-ray film and to produce X-ray image.

[4] = system: PC-10 cells originated from human lung cancer; experiment: Test Example 3: X-ray radiography of PC-10 solid cancer on the back of nude mice; format: in vivo; details: nude mice with PC-10 solid cancer on the back; procedure of Test Example 1
Method: (§1) Male Balb/c mice having a body weight of 16˜20 g (five mice per group) were inoculated, in their abdominal region, with MKSA cells to form a solid ascites carcinoma in the abdominal region of mouse. The mono-L-aspartyl chlorin e6-gold complex sodium salt (the product of Example 2 above) was administered at a dose of 0.01˜0.04 mg in the form of a physiological saline solution of said gold complex sodium salt to the cancer-bearing mice through their tail vein. At the end of one hour to three hours after the administration, the mice were anesthetized with nembutal. An X-ray beam containing the X-ray of the wavelength of 0.153 Å was irradiated from outside of the body to the abdominal region of the mice for an appropriate time.
The procedure of Test Example 1 was repeated except that the ascites carcinoma-bearing used in Test Example 1 were replaced by nude mice which had on the back of the body a solid cancer as formed by transplantation of PC-10 cells originated from human lung cancer.

[5] = system: MKSA cells (solid ascites carcinoma in the abdominal region); experiment: Test Example 1: detection and therapy of tumor tissue by X-ray radiography (solid ascites carcinoma); format: in vivo, Male Balb/c mice
Method: as §1
X-ray image was formed by allowing the X-ray to pass through the abdominal region of mice and to expose and sensitize an X-ray film.
Thus, it was found and confirmed that the gold complex of the chlorin e6 derivative as administered to mice had exerted a cytocidal action to the ascites carcinoma cells upon the irradiation of X-ray to mice.

Compound | 50% lethal dose (acute toxicity) (CD-1 mice (male) [1]) [mg/kg] | acute toxicity upon oral administration, compared with mono-L-aspartyl chlorin e6 tetrasodium salt (CD-1 mice (male) [2]) | X-ray image of the lesions of arteriosclerosis ([3]; rabbit with high cholesteremia, X-ray beam containing 0.153 Å one hour after administration) | dimensions of the lesions of arteriosclerosis compared with those at the time of X-ray irradiation ([3]; one week after the X-ray irradiation) | X-ray image of the solid cancer on X-ray film [4] | X-ray image of the solid cancer on X-ray film ([5]; 0.01~0.04 mg i.v. (tail vein), X-ray beam containing 0.153 Å irradiated 1-3 hours after administration) | dimensions of the solid cancer compared with those at the time of the X-ray photograph ([5]; one week after the X-ray irradiation, 0.01~0.04 mg i.v.)
C=Cc1c(C)c2cc3nc(c(CC(=O)N[C@@H](CC(=O)[O-])C(=O)[O-])c4[nH]c(cc5nc(cc1[nH]2)C(C)=C5CC)c(C)c4C(=O)[O-])[C@@H](CCC(=O)[O-])[C@@H]3C.[Na+].[Na+].[Na+].[Na+] [mono-L-aspartyl chlorin e6 tetra-sodium salt] | 164 |  |  |  |  |  | 
mono-L-aspartyl chlorin e6-gold complex sodium salt [Example 2] |  | substantially same as that of the mono-L-aspartyl chlorin e6 tetrasodium salt | sharp X-ray image | clearly diminished | Sharp X-ray image | sharply imaged | reduced significantly
